Calls of active or inactive are those of the source. The rule behind the calls is not given here.
Tests used:
Cavia porcellus [1] = assay: Hypotensive activity at guinea pig assessed as decrease in blood pressure at 50 mg/kg, po after 1 hr (reference value: 112 +/- 2.6 to 122 +/- 2.7 mmHg); assay type: functional
[2] = Antagonist activity at guinea pig atrial beta adrenergic receptor assessed as isometric contractions by force displacement transducer; assay type: tissue-based, Cavia porcellus, Cardiac atrium
Cavia porcellus [3] = assay: Hypotensive activity at guinea pig assessed as decrease in blood pressure at 50 mg/kg, po after 3 hrs (reference value: 112 +/- 2.6 to 122 +/- 2.7 mmHg); assay type: functional
Cavia porcellus [4] = assay: Hypotensive activity at guinea pig assessed as decrease in blood pressure at 50 mg/kg, po after 5 hrs (reference value: 112 +/- 2.6 to 122 +/- 2.7 mmHg); assay type: functional
Cavia porcellus [5] = assay: Hypotensive activity at guinea pig assessed as decrease in blood pressure at 100 mg/kg, po after 1 hr; assay type: functional, organism-based; parameters: dose 100 mg/kg
Cavia porcellus [6] = organism: Cavia porcellus; assay: Antagonist activity at guinea pig atrial beta adrenergic receptor assessed as isometric contractions at 5 x 10^-5 M by force displacement transducer; assay type: tissue-based; details: Cardiac atrium
Cavia porcellus [7] = assay: Hypotensive activity at guinea pig assessed as decrease in blood pressure at 100 mg/kg, po after 5 hrs; assay type: functional, organism-based; parameters: dose 100 mg/kg
Cavia porcellus [8] = assay: Hypotensive activity at guinea pig assessed as decrease in blood pressure at 100 mg/kg, po after 3 hrs; assay type: functional, organism-based; parameters: dose 100 mg/kg
Cavia porcellus [9] = assay: Toxicity in guinea pig assessed as increase in heart beating rate at 50 mg/kg, po; assay type: organism-based; parameters: dose 50 mg/kg, route oral; details: in vivo
Cavia porcellus [10] = assay: Toxicity in guinea pig assessed as depression in heart beating rate at 50 mg/kg, po relative to control; assay type: organism-based; parameters: dose 50 mg/kg, route oral; details: in vivo

| Structure (SMILES) | Activity (Cavia porcellus [1]) [mmHg] | pA2 [2] | Activity (Cavia porcellus [3]) [mmHg] | Activity (Cavia porcellus [4]) [mmHg] | Activity (Cavia porcellus [5]) | Activity (Cavia porcellus [6]) | Activity (Cavia porcellus [7]) | Activity (Cavia porcellus [8]) | Activity (Cavia porcellus [9]) [%] | Activity (Cavia porcellus [10]) [%] |
| --- | --- | --- | --- | --- | --- | --- | --- | --- | --- | --- |
| CC(C)(C)NCC(O)c1ccc2c(c1)OCO2.Cl (stereo not given) | 83 | 6.5 | 77 | 77 |  |  |  |  |  |  |
| OC(CNC1=NCCN1)c1ccc2c(c1)OCO2 (stereo not given) |  |  |  |  | inactive | inactive | inactive | inactive |  |  |
| CC(C)NCC(O)c1ccc(NS(C)(=O)=O)cc1 (stereo not given) [SOTALOL] | 112 | 6.8 | 108 | 107 |  |  |  |  |  |  |
| CC(C)NCC(O)c1ccc2c(c1)OCO2.Cl (stereo not given) | 97 | 6.2 | 84 | 87 |  |  |  |  | 25 |  |
| CC(C)NC(C)C(O)c1ccc2c(c1)OCO2.Cl (stereo not given) | 92 |  | 91 | 94 |  | inactive |  |  |  | < 10 |
| N=C(N)NCC(O)c1ccc2c(c1)OCO2 (stereo not given) |  |  |  |  | inactive | inactive | inactive | inactive |  |  |
| CC(C)NCC(O)/C=C/c1ccc2c(c1)OCO2 (stereo not given) |  |  |  |  | inactive | inactive | inactive | inactive |  |  |
| N=C(N)NCCc1ccc2c(c1)OCO2 |  |  |  |  | inactive | inactive | inactive | inactive |  |  |
| CC(C)NCC(O)COC(=O)c1ccc2c(c1)OCO2.Cl (stereo not given) |  | 6.9 |  |  | inactive |  | inactive | inactive |  |  |
| NNc1nncc2ccccc12 |  |  |  |  |  | inactive |  |  |  |  |
| CC(C)(C)NCC(O)COC(=O)c1ccc2c(c1)OCO2.Cl (stereo not given) |  | 6.9 |  |  | inactive |  | inactive | inactive |  |  |
| CNCC(O)COC(=O)c1ccc2c(c1)OCO2.O=C(O)C(=O)O (stereo not given) |  | 5.3 |  |  | inactive |  | inactive | inactive |  | < 10 |
| c1cc2c(cc1CCNC1=NCCN1)OCO2 |  |  |  |  | inactive | inactive | inactive | inactive |  |  |
| CC(C)NCC(O)COc1cccc2ccccc12 (stereo not given) [PROPRANOLOL] | 141 |  | 119 | 117 |  |  |  |  |  |  |

Reference: ChEMBL document CHEMBL3243918, “Synthesis and adrenergic beta-blocking activity of some 1,3-benzodioxole derivatives” (J Med Chem, 1977)
